{"source": "patent US20050158320A1", "about": "“Combinations for the treatment of proliferative diseases” (priority 2003, published 2005)", "key": {"[1]": {"biological_target": "T1, Recombinant HsEg5/KSP kinesin motor protein (Homo sapiens, UniProt P52732)", "T1 sequence (P52732 1-1056)": "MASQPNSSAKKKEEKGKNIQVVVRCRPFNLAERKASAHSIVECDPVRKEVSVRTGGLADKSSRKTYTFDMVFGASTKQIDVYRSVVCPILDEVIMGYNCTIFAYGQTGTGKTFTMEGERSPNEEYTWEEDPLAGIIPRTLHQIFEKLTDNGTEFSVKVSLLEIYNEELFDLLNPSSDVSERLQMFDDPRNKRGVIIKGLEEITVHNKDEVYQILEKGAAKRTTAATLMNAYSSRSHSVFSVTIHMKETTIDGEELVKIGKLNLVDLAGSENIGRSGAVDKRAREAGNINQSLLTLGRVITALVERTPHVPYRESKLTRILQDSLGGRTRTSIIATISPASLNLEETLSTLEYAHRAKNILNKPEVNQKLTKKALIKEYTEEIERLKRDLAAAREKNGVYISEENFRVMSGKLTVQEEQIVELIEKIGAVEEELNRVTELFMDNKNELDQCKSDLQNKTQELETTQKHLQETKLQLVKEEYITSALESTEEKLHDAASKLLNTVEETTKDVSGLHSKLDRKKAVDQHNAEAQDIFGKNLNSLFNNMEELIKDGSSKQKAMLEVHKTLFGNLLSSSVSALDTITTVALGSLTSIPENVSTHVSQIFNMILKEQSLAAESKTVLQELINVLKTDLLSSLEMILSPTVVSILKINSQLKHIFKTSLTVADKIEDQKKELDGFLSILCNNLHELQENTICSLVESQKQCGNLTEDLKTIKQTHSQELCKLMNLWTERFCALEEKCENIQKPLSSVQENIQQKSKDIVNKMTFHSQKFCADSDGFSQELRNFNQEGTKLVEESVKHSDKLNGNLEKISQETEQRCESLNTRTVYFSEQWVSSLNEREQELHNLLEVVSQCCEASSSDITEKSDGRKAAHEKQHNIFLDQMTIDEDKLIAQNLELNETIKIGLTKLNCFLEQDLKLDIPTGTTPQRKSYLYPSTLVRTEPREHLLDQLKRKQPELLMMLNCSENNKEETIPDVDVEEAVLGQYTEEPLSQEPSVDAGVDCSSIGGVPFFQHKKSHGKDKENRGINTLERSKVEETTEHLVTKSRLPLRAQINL", "assay": "cell free motor assay (Kinesin ATPase End Point Biochem Kit, microtubule activated ATPase activity)", "type": "biochemical", "procedure": "This assay measures organic phosphate (Pi) generated during microtubule activated ATPase activity of kinesin motor proteins. Recombinant HsEg5/KSP kinesin motor protein activity was assayed using the Kinesin ATPase End Point Biochem Kit (Cytoskeleton, catalog # BK053) following the manufacturer's instructions for amounts of reaction buffer, ATP and microtubules. The amount of HsEg5/KSP kinesin protein was optimized to 0.8 μg per reaction and included where indicated. Each assay was performed in a total reaction volume of 30 μL in a clear 96 well ½ area plate (Coming Inc., Costar and cat # 3697) and included the following conditions: • 1. a reaction blank consisting of reaction buffer and ATP only; • 2. negative control reactions containing: • a. microtubules and ATP without kinesin protein or • b. kinesin HsEg5/KSP and ATP without microtubules; and • 3. experimental reactions containing ATP, kinesin, and microtubules with or without compound at the indicated final concentrations.\nReactions were pre-incubated for 15 minutes at room temperature prior to the addition of ATP. After ATP addition, reactions were allowed to proceed for 10 minutes at room temperature prior to termination by the addition of 70 μL of CytoPhos Reagent. Following a last 10-minute incubation at room temperature, reactions were quantitated by reading the absorbance at 650 nm on a spectrophotometer (Beckman Instruments, Inc., Model DU 530). Raw absorbance values were corrected by subtracting the absorbance of the blank. Absorbance was converted into Pi concentration by comparison with a standard Pi curve. Percent inhibition was calculated from Pi concentration according to the following formula: % Inhibition=(untreated-treated)/untreated×100. The arithmetic mean was generated from percent inhibition of experimental replicates."}, "[2]": {"test_system": "Human colon adenocarcinoma cell line HCT116", "assay": "anti-proliferation assay (Alamar Blue)", "type": "cell-based", "conditions": "read-out: percent inhibition (% I) of cell proliferation", "procedure": "Cells were diluted in culture media such that 3000 cells were delivered in 20 μL of media into each assay well. […] Quantification, using an LJL Analyst AD reader (LJL Biosystems), was taken in the middle of the well with high attenuation, a 100 msec read time, an excitation filter at 530 nm, and an emission filter at 575 nm. For some experiments, quantification was performed using a Wallac Victor2 reader. Measurements were taken at the top of the well with stabilized energy lamp control; a 100 msec read time, an excitation filter at […], and an emission filter at 590 nm. No significant differences between plate readers were measured. The percent inhibition (% I) for each well was calculated using the following formula: % I=[(avg. untreated wells−treated well)/(avg. untreated wells)]×100 […] Negative inhibition values result from local variations in treated wells as compared to untreated wells."}, "PRL phosphatases": {"test_system": "PRL phosphatases", "conditions": "Pathak et al., Mol. Cancer Ther. 2002; cited from earlier work"}}, "note": "Like-named read-outs stand apart in the source and are kept apart here."}
{"smiles": "CN(C)CCCN1c2ccccc2Sc2ccc(Cl)cc21", "note": "[Chlorpromazine, chlorpromazine]", "values": [{"measurement": "mitotic kinesin inhibition (in words)", "setting": "[1]; cell free motor assay", "value": "mitotic kinesin inhibitor"}, {"measurement": "inhibition at 1 µM", "setting": "[1]; chlorpromazine 1 μM, mean, n = 4, read-out: Percent inhibition of kinesin motor activity", "value": -5.51, "unit": "%"}, {"measurement": "inhibition at 2 µM", "setting": "[1]; chlorpromazine 2 μM, mean, n = 4, read-out: Percent inhibition of kinesin motor activity", "value": -11.2, "unit": "%"}, {"measurement": "inhibition at 4 µM", "setting": "[1]; chlorpromazine 4 μM, mean, n = 4, read-out: Percent inhibition of kinesin motor activity", "value": 17.4, "unit": "%"}, {"measurement": "inhibition at 8 µM", "setting": "[1]; chlorpromazine 8 μM, mean, n = 4, read-out: Percent inhibition of kinesin motor activity", "value": 52.9, "unit": "%"}, {"measurement": "inhibition at 16 µM", "setting": "[1]; chlorpromazine 16 μM, mean, n = 4, read-out: Percent inhibition of kinesin motor activity", "value": 85.8, "unit": "%"}, {"measurement": "inhibition at 32 µM", "setting": "[1]; chlorpromazine 32 μM, mean, n = 4, read-out: Percent inhibition of kinesin motor activity", "value": 97.8, "unit": "%"}, {"measurement": "inhibition at 64 µM", "setting": "[1]; chlorpromazine 64 μM, mean, n = 4, read-out: Percent inhibition of kinesin motor activity", "value": 105, "unit": "%"}, {"measurement": "inhibition at 4 µM", "setting": "[2]; HCT-116, chlorpromazine 4 μM, pentamidine 0 μM", "value": 2.9, "unit": "%"}, {"measurement": "inhibition at 6 µM", "setting": "[2]; HCT-116, chlorpromazine 6 μM, pentamidine 0 μM", "value": 0.11, "unit": "%"}, {"measurement": "inhibition at 7.5 µM", "setting": "[2]; HCT-116, chlorpromazine 7.5 μM, pentamidine 0 μM", "value": 5.4, "unit": "%"}, {"measurement": "inhibition at 9 µM", "setting": "[2]; HCT-116, chlorpromazine 9 μM, pentamidine 0 μM", "value": 4.1, "unit": "%"}, {"measurement": "inhibition at 10 µM", "setting": "[2]; HCT-116, chlorpromazine 10 μM, pentamidine 0 μM", "value": 16, "unit": "%"}, {"measurement": "inhibition at 12 µM", "setting": "[2]; HCT-116, chlorpromazine 12 μM, pentamidine 0 μM", "value": 22, "unit": "%"}, {"measurement": "inhibition at 16 µM", "setting": "[2]; HCT-116, chlorpromazine 16 μM, pentamidine 0 μM", "value": 39, "unit": "%"}, {"measurement": "inhibition at 20 µM", "setting": "[2]; HCT-116, chlorpromazine 20 μM, pentamidine 0 μM", "value": 56, "unit": "%"}, {"measurement": "inhibition at 22 µM", "setting": "[2]; HCT-116, chlorpromazine 22 μM, pentamidine 0 μM", "value": 59, "unit": "%"}]}
{"smiles": "N=C(N)c1ccc(OCCCCCOc2ccc(C(=N)N)cc2)cc1", "note": "[Pentamidine, pentamidine]", "values": [{"measurement": "inhibition at 0.5 µM", "setting": "[2]; HCT-116, chlorpromazine 0 μM, pentamidine 0.5 μM", "value": 1.2, "unit": "%"}, {"measurement": "inhibition at 1 µM", "setting": "[2]; HCT-116, chlorpromazine 0 μM, pentamidine 1 μM", "value": 1.9, "unit": "%"}, {"measurement": "inhibition at 2 µM", "setting": "[2]; HCT-116, chlorpromazine 0 μM, pentamidine 2 μM", "value": 3.1, "unit": "%"}, {"measurement": "inhibition at 4 µM", "setting": "[2]; HCT-116, chlorpromazine 0 μM, pentamidine 4 μM", "value": -0.77, "unit": "%"}, {"measurement": "inhibition at 6 µM", "setting": "[2]; HCT-116, chlorpromazine 0 μM, pentamidine 6 μM", "value": 5, "unit": "%"}, {"measurement": "inhibition at 9 µM", "setting": "[2]; HCT-116, chlorpromazine 0 μM, pentamidine 9 μM", "value": 9, "unit": "%"}, {"measurement": "inhibition at 12 µM", "setting": "[2]; HCT-116, chlorpromazine 0 μM, pentamidine 12 μM", "value": 9.9, "unit": "%"}, {"measurement": "inhibition at 15 µM", "setting": "[2]; HCT-116, chlorpromazine 0 μM, pentamidine 15 μM", "value": 16, "unit": "%"}, {"measurement": "inhibition at 20 µM", "setting": "[2]; HCT-116, chlorpromazine 0 μM, pentamidine 20 μM", "value": 19, "unit": "%"}, {"measurement": "PRL phosphatase inhibition (in words)", "setting": "PRL phosphatases", "value": "inhibitor of the PRL phosphatases"}]}
